Legend:
Type in all cases: in vivo
weed species = experiment: Post-emergence test, summary over all weeds
Procedure: To evaluate their herbicidal activity, compounds according to the invention are tested using a representative range of plants:
These acetone solutions are diluted with water and the resulting formulations applied at dosage levels equivalent of about 0.025 to 0.4 kg per hectare of test compound per pot. After spraying the plants are placed on greenhouse benches and are cared for in the usual manner, commensurate with conventional greenhouse practices. From 2 to 4 weeks after treatment, the seedling plants are examined and rated according to the rating system provided above.

[1] = system: thirteen weed species (broadleaf weeds and grasses); experiment: Pre-emergence test, summary over all weeds; settings: for Number of weed species well / sufficiently controlled: out of thirteen species
Procedure: (§1) To evaluate their herbicidal activity, compounds according to the invention are tested using a representative range of plants: […] The pre-emergence tests involve spraying a liquid formulation of the compound onto the soil in which the seeds of the plant species mentioned above has recently been sown. The soil used in the tests is a prepared horticultural loam. […] In these tests untreated sown soil are used as controls.

[2] = system: Cassia obtusifolia (CASOB); experiment: Pre-emergence test; settings: 3 weeks after treatment
Procedure: as §1

Galium aparine (GALAP) = experiment: Pre-emergence test; settings: 3 weeks after treatment
Procedure: as §1

[3] = system: Lolium multiflorum (LOLMU); experiment: Pre-emergence test; settings: 3 weeks after treatment
Procedure: as §1

[4] = system: Alopecurus myosuroides (ALOMY); experiment: Pre-emergence test; settings: 3 weeks after treatment
Procedure: as §1

[5] = system: Ipomoea hederacea (IPOHE); experiment: Pre-emergence test; settings: 3 weeks after treatment
Procedure: as §1

[6] = system: Abutilon theophrasti (ABUTH); experiment: Pre-emergence test; settings: 3 weeks after treatment
Procedure: as §1

[7] = system: Digitaria sanguinalis (DIGSA); experiment: Pre-emergence test; settings: 3 weeks after treatment
Procedure: as §1

Lamium purpureum (LAMPU) = experiment: Pre-emergence test; settings: 3 weeks after treatment
Procedure: as §1

[8] = system: Matricaria inodora (MATIN); experiment: Pre-emergence test; settings: 3 weeks after treatment
Procedure: as §1

Zea mays (ZEAMX) = experiment: Pre-emergence test; settings: for Assessment rating ZEAMX (pre-emergence application): crop (corn), 3 weeks after treatment
Procedure: as §1

[9] = system: Echinochloa crus-galli (ECHCG); experiment: Pre-emergence test; settings: 3 weeks after treatment
Procedure: as §1

SMILES: Cc1cc(Oc2cc(C(F)(F)F)nn2C)nc(-n2ccc(C(F)(F)F)n2)c1 [Example 2, 4-methyl-2-(-3-trifluoromethyl-1H-prazol-1-yl)-6-(1-methyl-3-trifluoromethyl-pyrazol-5-yloxy)-pyridine]
- Number of weed species controlled (weed species; 0.100 kg/ha): twelve weed species
- Herbicidal activity, overall judgement (weed species; versus known compound of the prior art): clearly superior activity
- Herbicidal activity, overall judgement [1]: excellent activity on both broadleaf weeds and grasses
- Rate required to obtain the same level of weed control [1]: 0.100 kg/ha
- Number of weed species well / sufficiently controlled ([1]; 0.100 kg/ha): eleven out of thirteen species
- Number of weed species well / sufficiently controlled ([1]; 0.400 kg/ha): all of the thirteen weed species
- Assessment rating CASOB (pre-emergence application) ([2]; 0.013 kg/ha): 0 (0 - No effect)
- Assessment rating CASOB (pre-emergence application) ([2]; 0.025 kg/ha): 4 (4 - Injury)
- Assessment rating CASOB (pre-emergence application) ([2]; 0.100 kg/ha): 8 (8 - Approaching complete kill)
- Assessment rating CASOB (pre-emergence application) ([2]; 0.400 kg/ha): 9 (9 - Complete kill)
- Assessment rating GALAP (pre-emergence application) (Galium aparine (GALAP); 0.013 kg/ha): 1 (1 - Trace effect)
- Assessment rating GALAP (pre-emergence application) (Galium aparine (GALAP); 0.025 kg/ha): 3 (3 - Moderate effect)
- Assessment rating GALAP (pre-emergence application) (Galium aparine (GALAP); 0.100 kg/ha): 6 (6 - Herbicidal effect)
- Assessment rating GALAP (pre-emergence application) (Galium aparine (GALAP); 0.400 kg/ha): 8 (8 - Approaching complete kill)
- Assessment rating LOLMU (pre-emergence application) ([3]; 0.013 kg/ha): 6 (6 - Herbicidal effect)
- Assessment rating LOLMU (pre-emergence application) ([3]; 0.025 kg/ha): 6 (6 - Herbicidal effect)
- Assessment rating LOLMU (pre-emergence application) ([3]; 0.100 kg/ha): 8 (8 - Approaching complete kill)
- Assessment rating LOLMU (pre-emergence application) ([3]; 0.400 kg/ha): 8 (8 - Approaching complete kill)
- Assessment rating ALOMY (pre-emergence application) ([4]; 0.013 kg/ha): 2 (2 - Slight effect)
- Assessment rating ALOMY (pre-emergence application) ([4]; 0.025 kg/ha): 5 (5 - Definite injury)
- Assessment rating ALOMY (pre-emergence application) ([4]; 0.100 kg/ha): 8 (8 - Approaching complete kill)
- Assessment rating ALOMY (pre-emergence application) ([4]; 0.400 kg/ha): 8 (8 - Approaching complete kill)
- Assessment rating IPOHE (pre-emergence application) ([5]; 0.013 kg/ha): 1 (1 - Trace effect)
- Assessment rating IPOHE (pre-emergence application) ([5]; 0.025 kg/ha): 3 (3 - Moderate effect)
- Assessment rating IPOHE (pre-emergence application) ([5]; 0.100 kg/ha): 6 (6 - Herbicidal effect)
- Assessment rating IPOHE (pre-emergence application) ([5]; 0.400 kg/ha): 9 (9 - Complete kill)
- Assessment rating ABUTH (pre-emergence application) ([6]; 0.013 kg/ha): 1 (1 - Trace effect)
- Assessment rating ABUTH (pre-emergence application) ([6]; 0.025 kg/ha): 3 (3 - Moderate effect)
- Assessment rating ABUTH (pre-emergence application) ([6]; 0.100 kg/ha): 8 (8 - Approaching complete kill)
- Assessment rating ABUTH (pre-emergence application) ([6]; 0.400 kg/ha): 9 (9 - Complete kill)
- Assessment rating DIGSA (pre-emergence application) ([7]; 0.013 kg/ha): 9 (9 - Complete kill)
- Assessment rating DIGSA (pre-emergence application) ([7]; 0.025 kg/ha): 9 (9 - Complete kill)
- Assessment rating DIGSA (pre-emergence application) ([7]; 0.100 kg/ha): 9 (9 - Complete kill)
- Assessment rating DIGSA (pre-emergence application) ([7]; 0.400 kg/ha): 9 (9 - Complete kill)
- Assessment rating LAMPU (pre-emergence application) (Lamium purpureum (LAMPU); 0.013 kg/ha): 8 (8 - Approaching complete kill)
- Assessment rating LAMPU (pre-emergence application) (Lamium purpureum (LAMPU); 0.025 kg/ha): 8 (8 - Approaching complete kill)
- Assessment rating LAMPU (pre-emergence application) (Lamium purpureum (LAMPU); 0.100 kg/ha): 9 (9 - Complete kill)
- Assessment rating LAMPU (pre-emergence application) (Lamium purpureum (LAMPU); 0.400 kg/ha): 9 (9 - Complete kill)
- Assessment rating MATIN (pre-emergence application) ([8]; 0.013 kg/ha): 7 (7 - Good herbicidal effect)
- Assessment rating MATIN (pre-emergence application) ([8]; 0.025 kg/ha): 8 (8 - Approaching complete kill)
- Assessment rating MATIN (pre-emergence application) ([8]; 0.100 kg/ha): 9 (9 - Complete kill)
- Assessment rating MATIN (pre-emergence application) ([8]; 0.400 kg/ha): 9 (9 - Complete kill)
- Assessment rating ZEAMX (pre-emergence application) (Zea mays (ZEAMX); 0.013 kg/ha): 0 (0 - No effect)
- Assessment rating ZEAMX (pre-emergence application) (Zea mays (ZEAMX); 0.025 kg/ha): 1 (1 - Trace effect)
- Assessment rating ZEAMX (pre-emergence application) (Zea mays (ZEAMX); 0.100 kg/ha): 2 (2 - Slight effect)
- Assessment rating ZEAMX (pre-emergence application) (Zea mays (ZEAMX); 0.400 kg/ha): 4 (4 - Injury)
- Selectivity in maize (Zea mays (ZEAMX); pre-emergence, 0.100 kg/ha): Good selectivity in maize
- Assessment rating ECHCG (pre-emergence application) ([9]; 0.013 kg/ha): 1 (1 - Trace effect)
- Assessment rating ECHCG (pre-emergence application) ([9]; 0.025 kg/ha): 2 (2 - Slight effect)
- Assessment rating ECHCG (pre-emergence application) ([9]; 0.100 kg/ha): 8 (8 - Approaching complete kill)
- Assessment rating ECHCG (pre-emergence application) ([9]; 0.400 kg/ha): 8 (8 - Approaching complete kill)
